# How the values were obtained:
# [1] = system: giant foxtail; assay: Test B pre/postemergence giant foxtail; format: in vivo, Setaria faberii
# How it was run: (§1)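 Test chemicals in a non-phytotoxic solvent mixture with surfactant were sprayed preemergence onto planted seeds and postemergence onto plants 2 to 18 cm tall (1- to 4-leaf stage). After twelve to sixteen days in a greenhouse, injury was visually rated against untreated controls from 0 (no effect) to 10 (complete control).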
# [2] = system: surinam grass; assay: Test B pre/postemergence surinam grass; format: in vivo, Brachiaria decumbens
# How it was run: as §1
# [3] = system: wild oat; assay: Test B pre/postemergence wild oat; format: in vivo, Avena fatua
# How it was run: as §1
# [4] = system: soybean; assay: Test B pre/postemergence soybean; format: in vivo, Glycine max
# How it was run: as §1
# [5] = system: cocklebur; assay: Test B pre/postemergence cocklebur; format: in vivo, Xanthium strumarium
# How it was run: as §1
# [6] = system: smallflower flatsedge; assay: Test B flood test smallflower flatsedge; format: in vivo, Cyperus difformis
# How it was run: (§2)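 Plants were grown to the 2-leaf stage before treatment with test chemical, then held in a greenhouse for twelve to sixteen days. Injury was visually rated against untreated controls on a 0–10 scale, where 0 is no effect and 10 is complete control.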
# [7] = system: duck salad; assay: Test B flood test duck salad; format: in vivo, Heteranthera limosa
# How it was run: as §2
# [8] = system: morningglory; assay: Test B pre/postemergence morningglory; format: in vivo, Ipomoea hederacea
# How it was run: as §1
# [9] = system: velvetleaf; assay: Test B pre/postemergence velvetleaf; format: in vivo, Abutilon theophrasti
# How it was run: as §1
# [10] = system: purple nutsedge; assay: Test B pre/postemergence purple nutsedge; format: in vivo, Cyperus rotundus
# How it was run: as §1
# [11] = system: blackgrass; assay: Test B pre/postemergence blackgrass; format: in vivo, Alopecurus myosuroides
# How it was run: as §1
# [12] = system: rape; assay: Test B pre/postemergence rape; format: in vivo, Brassica napus
# How it was run: as §1
# [13] = system: crabgrass; assay: Test B pre/postemergence crabgrass; format: in vivo, Digitaria sanguinalis
# How it was run: as §1
# [14] = system: wheat; assay: Test B pre/postemergence wheat; format: in vivo, Triticum aestivum
# How it was run: as §1
# [15] = system: corn; assay: Test B pre/postemergence corn; format: in vivo, Zea mays
# How it was run: as §1
# [16] = system: sugar beet; assay: Test B pre/postemergence sugar beet; format: in vivo, Beta vulgaris
# How it was run: as §1
# [17] = Postemergence, Rate 62 g/ha, scale 0 to 10, 0 is no effect, 10 is complete control
# [18] = Postemergence, Rate 250 g/ha, scale 0 to 10, 0 no effect, 10 complete control
# [19] = Preemergence, Rate 62 g/ha, scale 0 to 10, 0 is no effect, 10 is complete control
# [20] = Preemergence, Rate 125 g/ha, scale 0 to 10 (0 no effect, 10 complete control)
# [21] = Preemergence, Rate 250 g/ha, scale of 0 to 10 where 0 is no effect and 10 is complete control
# [22] = Preemergence, Rate 500 g/ha, scale 0 (no effect) to 10 (complete control)
# [23] = Rate 125 g/ha, Postemergence, scale 0 to 10, 0 no effect, 10 complete control
# [24] = Rate 500 g/ha, Postemergence, 0 to 10 scale (0 no effect, 10 complete control)
# [25] = Rate 125 g/ha, Postemergence section (flood test species), scale 0 to 10, 0 no effect, 10 complete control
# [26] = flood test, listed under Postemergence, Rate 250 g/ha, scale 0 to 10, 0 no effect, 10 complete control
compound,measurement,setting,value
Cc1ccccc1-n1c(=O)on(C(=O)N(c2cc(OC(C)C)c(Cl)cc2Cl)C(C)C)c1=O [Compound 42],Giant foxtail plant response rating,[1]; [17],0
same,Giant foxtail plant response rating,[1]; [18],0
same,"Plant response rating, Giant foxtail",[1]; [19],0
same,"Plant response rating, Giant foxtail",[1]; [20],0
same,"Plant response rating, Giant foxtail",[1]; [21],0
same,Giant foxtail plant response rating,[1]; [22],0
same,Giant foxtail plant response rating,[1]; [23],0
same,Giant foxtail plant response rating,[1]; [24],0
same,B. signalgrass plant response rating,[2]; [17],0
same,B. signalgrass plant response rating,[2]; [18],0
same,"Plant response rating, B. signalgrass",[2]; [19],0
same,"Plant response rating, B. signalgrass",[2]; [20],0
same,"Plant response rating, B. signalgrass",[2]; [21],0
same,B. signalgrass plant response rating,[2]; [22],0
same,B. signalgrass plant response rating,[2]; [23],0
same,B. signalgrass plant response rating,[2]; [24],0
same,Wild oats plant response rating,[3]; [17],0
same,Wild oats plant response rating,[3]; [18],0
same,"Plant response rating, Wild oats",[3]; [20],0
same,"Plant response rating, Wild oats",[3]; [21],0
same,Wild oats plant response rating,[3]; [22],0
same,Wild oats plant response rating,[3]; [23],0
same,Soybean plant response rating,[4]; [17],0
same,Soybean plant response rating,[4]; [18],0
same,"Plant response rating, Soybean",[4]; [19],0
same,"Plant response rating, Soybean",[4]; [20],0
same,"Plant response rating, Soybean",[4]; [21],0
same,Soybean plant response rating,[4]; [22],0
same,Soybean plant response rating,[4]; [23],0
same,Cocklebur plant response rating,[5]; [17],0
same,Cocklebur plant response rating,[5]; [18],0
same,"Plant response rating, Cocklebur",[5]; [19],0
same,"Plant response rating, Cocklebur",[5]; [20],0
same,"Plant response rating, Cocklebur",[5]; [21],0
same,Cocklebur plant response rating,[5]; [22],0
same,Cocklebur plant response rating,[5]; [23],0
same,Cocklebur plant response rating,[5]; [24],0
same,S. Flatsedge plant response rating,[6]; [17],0
same,S. Flatsedge plant response rating,[6]; [25],0
same,S. Flatsedge plant response rating,[6]; [26],0
same,Ducksalad plant response rating,[7]; [17],0
same,Ducksalad plant response rating,[7]; [25],0
same,Ducksalad plant response rating,"[7]; Rate 500 g/ha, Postemergence section of Table B, 0 to 10 scale (0 no effect, 10 complete control)",0
same,Ducksalad plant response rating,[7]; [26],0
same,Morningglory plant response rating,[8]; [17],0
same,Morningglory plant response rating,[8]; [18],0
same,"Plant response rating, Morningglory",[8]; [19],0
same,"Plant response rating, Morningglory",[8]; [20],0
same,"Plant response rating, Morningglory",[8]; [21],0
same,Morningglory plant response rating,[8]; [22],0
same,Morningglory plant response rating,[8]; [23],0
same,Morningglory plant response rating,[8]; [24],1
same,Velvetleaf plant response rating,[9]; [17],0
same,Velvetleaf plant response rating,[9]; [18],0
same,"Plant response rating, Velvetleaf",[9]; [19],0
same,"Plant response rating, Velvetleaf",[9]; [20],0
same,"Plant response rating, Velvetleaf",[9]; [21],0
same,Velvetleaf plant response rating,[9]; [22],0
same,Velvetleaf plant response rating,[9]; [23],0
same,Nutsedge plant response rating,[10]; [17],0
same,Nutsedge plant response rating,[10]; [18],0
same,"Plant response rating, Nutsedge",[10]; [19],0
same,"Plant response rating, Nutsedge",[10]; [20],0
same,"Plant response rating, Nutsedge",[10]; [21],0
same,Nutsedge plant response rating,[10]; [22],0
same,Nutsedge plant response rating,[10]; [23],0
same,Nutsedge plant response rating,[10]; [24],0
same,Blackgrass plant response rating,[11]; [17],0
same,Blackgrass plant response rating,[11]; [18],0
same,"Plant response rating, Blackgrass",[11]; [19],0
same,"Plant response rating, Blackgrass",[11]; [20],0
same,"Plant response rating, Blackgrass",[11]; [21],0
same,Blackgrass plant response rating,[11]; [22],0
same,Blackgrass plant response rating,[11]; [23],0
same,Blackgrass plant response rating,[11]; [24],0
same,Rape plant response rating,[12]; [17],0
same,Rape plant response rating,[12]; [18],0
same,"Plant response rating, Rape",[12]; [19],0
same,"Plant response rating, Rape",[12]; [20],0
same,"Plant response rating, Rape",[12]; [21],0
same,Rape plant response rating,[12]; [22],0
same,Rape plant response rating,[12]; [23],0
same,Rape plant response rating,[12]; [24],0
same,Crabgrass plant response rating,[13]; [17],0
same,Crabgrass plant response rating,[13]; [18],0
same,"Plant response rating, Crabgrass",[13]; [19],0
same,"Plant response rating, Crabgrass",[13]; [20],0
same,"Plant response rating, Crabgrass",[13]; [21],0
same,Crabgrass plant response rating,[13]; [22],0
same,Crabgrass plant response rating,[13]; [23],0
same,Crabgrass plant response rating,[13]; [24],0
same,Wheat plant response rating,[14]; [17],0
same,Wheat plant response rating,[14]; [18],0
same,"Plant response rating, Wheat",[14]; [19],0
same,"Plant response rating, Wheat",[14]; [20],0
same,"Plant response rating, Wheat",[14]; [21],0
same,Wheat plant response rating,[14]; [22],0
same,Wheat plant response rating,[14]; [23],0
same,Corn plant response rating,[15]; [17],0
same,Corn plant response rating,[15]; [18],0
same,"Plant response rating, Corn",[15]; [19],0
same,"Plant response rating, Corn",[15]; [20],0
same,"Plant response rating, Corn",[15]; [21],0
same,Corn plant response rating,[15]; [22],0
same,Corn plant response rating,[15]; [23],0
same,Corn plant response rating,[15]; [24],0
same,Sugarbeets plant response rating,[16]; [17],0
same,Sugarbeets plant response rating,[16]; [18],0
same,"Plant response rating, Sugarbeets",[16]; [19],0
same,"Plant response rating, Sugarbeets",[16]; [20],0
same,"Plant response rating, Sugarbeets",[16]; [21],0
same,Sugarbeets plant response rating,[16]; [22],0
same,Sugarbeets plant response rating,[16]; [23],0

# — US6737383B1, “Herbicidal oxadiazolidines” (priority 1999, dated 2004)
